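How tested: cells in 96-well plates exposed to compound for 48 hours at five concentrations. At the GI50, growth is halved.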 Calls of active or inactive are those of the source. Cut-off read from the data, not from the text of the source: active = GI50 up to about 1.1 µM and inactive = higher. Peptide text beside a SMILES is read from it. * marks the point of attachment. Boc = CC(C)(C)OC(=O)*; OBn = c1ccc(CO*)cc1
Assays:
Experiment in all cases: growth of human tumour cells (NCI), 48 h
PC-3 = system: PC-3
EKVX = system: EKVX
NCI-H522 = system: NCI-H522
OVCAR-4 = system: OVCAR-4
HOP-92 = system: HOP-92
RPMI-8226 = system: RPMI-8226
UACC-257 = system: UACC-257
NCI-H23 = system: NCI-H23
HCC 2998 = system: HCC 2998
M14 = system: M14
Hs-578T = system: Hs-578T
UO-31 = system: UO-31
COLO 205 = system: COLO 205
HL-60 = system: HL-60
A549 = system: A549
A498 = system: A498
SW-620 = system: SW-620
SK-MEL-28 = system: SK-MEL-28
RXF 393 = system: RXF 393
HOP-62 = system: HOP-62

Measured: GI50

C=C1C(=O)OC2(C)CCC1CC1OC1(C)CCC=C(C)CCC2O (stereo not drawn)
inactive: PC-3 > 100 µM | EKVX > 100 µM | NCI-H522 64.7 µM | OVCAR-4 > 100 µM | HOP-92 > 100 µM | RPMI-8226 53 µM | UACC-257 > 100 µM | NCI-H23 > 100 µM | HCC 2998 > 100 µM | M14 > 100 µM | Hs-578T 57.5 µM | UO-31 57.7 µM | COLO 205 > 100 µM | HL-60 21.7 µM | A549 > 100 µM | A498 35.9 µM | SW-620 45.4 µM | SK-MEL-28 > 100 µM

C=CCC(CC=O)(C(=O)OCC)C(=O)OCC
inactive: PC-3 > 100 µM | EKVX > 100 µM | NCI-H522 > 100 µM | RXF 393 > 100 µM | OVCAR-4 > 100 µM | HOP-92 > 100 µM | RPMI-8226 > 100 µM | UACC-257 > 100 µM | NCI-H23 > 100 µM | M14 > 100 µM | HOP-62 > 100 µM | Hs-578T > 100 µM | UO-31 76.2 µM | COLO 205 > 100 µM | HL-60 86.1 µM | A549 > 100 µM | A498 > 100 µM | SW-620 > 100 µM | SK-MEL-28 > 100 µM

O=C(O)/C(=C/C(=O)c1ccc(Cl)cc1)NNc1ccc([N+](=O)[O-])cc1[N+](=O)[O-]
inactive: PC-3 36.2 µM | EKVX > 100 µM | NCI-H522 21.6 µM | OVCAR-4 19.7 µM | HOP-92 22.9 µM | RPMI-8226 28.5 µM | UACC-257 > 100 µM | NCI-H23 44.1 µM | HCC 2998 59.8 µM | M14 42.1 µM | HOP-62 28.4 µM | Hs-578T 31.2 µM | UO-31 20.8 µM | COLO 205 > 100 µM | HL-60 49.3 µM | A549 40.6 µM | A498 > 100 µM | SK-MEL-28 43.5 µM

COc1ccc2c(c1)nc1n2C(c2c(Cl)cccc2Cl)SC1 (stereo not drawn)
inactive: PC-3 > 33.3 µM | EKVX > 64.1 µM | OVCAR-4 > 46.6 µM | HOP-92 > 71.4 µM | RPMI-8226 > 23.5 µM | UACC-257 37.8 µM | NCI-H23 38.4 µM | HCC 2998 11.2 µM | M14 12.4 µM | HOP-62 32.9 µM | Hs-578T 5.45 µM | UO-31 46.5 µM | COLO 205 4.63 µM | A549 18 µM | A498 46.5 µM | SK-MEL-28 25.9 µM

c1coc(C2=Nc3cccc4cccc(c34)N2)c1
inactive: PC-3 24.2 µM | EKVX 55.2 µM | NCI-H522 11.2 µM | RXF 393 25.9 µM | OVCAR-4 29.9 µM | HOP-92 25.5 µM | RPMI-8226 71.8 µM | UACC-257 41.4 µM | NCI-H23 44.8 µM | HCC 2998 34.9 µM | M14 25.4 µM | HOP-62 > 100 µM | Hs-578T 55.6 µM | UO-31 16.2 µM | COLO 205 14.8 µM | HL-60 19.5 µM | A549 60.3 µM | SW-620 38.6 µM | SK-MEL-28 72.9 µM

CC(C)CC(NC(=O)OC(C)(C)C)C(=O)NC(CC(=O)OCc1ccccc1)C(N)=O (stereo not drawn) (Boc-Leu-Asp(OBn)-NH2; configuration not given here)
inactive: PC-3 > 100 µM | EKVX > 100 µM | NCI-H522 > 100 µM | RXF 393 > 100 µM | OVCAR-4 > 100 µM | HOP-92 > 100 µM | UACC-257 > 100 µM | NCI-H23 > 100 µM | M14 > 100 µM | Hs-578T 58.9 µM | UO-31 > 100 µM | COLO 205 > 100 µM | A549 > 100 µM | A498 > 100 µM | SW-620 > 100 µM | SK-MEL-28 > 100 µM

COc1cc2c(cc1OC)C13CC[N+]4(C)CC5=CCOC6CC(=O)N2C1C6C5CC34[O-] (stereo not drawn)
inactive: PC-3 > 100 µM | EKVX > 100 µM | NCI-H522 > 100 µM | RXF 393 > 100 µM | OVCAR-4 > 100 µM | HOP-92 > 100 µM | RPMI-8226 > 100 µM | UACC-257 > 100 µM | NCI-H23 > 100 µM | M14 > 100 µM | HOP-62 > 100 µM | Hs-578T > 100 µM | UO-31 > 100 µM | COLO 205 > 100 µM | HL-60 > 100 µM | A549 > 100 µM | A498 > 100 µM | SW-620 > 100 µM | SK-MEL-28 > 100 µM

COc1cc(C2S/C(=C/c3ccccc3)C(=O)N2Cc2ccccc2)cc(OC)c1OC (stereo not drawn)
inactive: PC-3 28.2 µM | EKVX 55.6 µM | NCI-H522 16.1 µM | OVCAR-4 23.2 µM | HOP-92 28.8 µM | RPMI-8226 21.5 µM | UACC-257 > 100 µM | NCI-H23 67.3 µM | HCC 2998 21 µM | M14 33.1 µM | HOP-62 26.2 µM | Hs-578T 30.2 µM | UO-31 24.4 µM | COLO 205 30.1 µM | HL-60 21.2 µM | A549 27.3 µM | A498 45.5 µM | SK-MEL-28 88.9 µM

Cc1ccc(S(=O)(=O)N/N=C2\CC(C)OC3=C2CCCCCC3)cc1 (stereo not drawn)
inactive: PC-3 19.2 µM | EKVX 15.2 µM | RXF 393 17.6 µM | OVCAR-4 19.8 µM | HOP-92 19.6 µM | RPMI-8226 21.9 µM | UACC-257 18.7 µM | NCI-H23 20.5 µM | M14 20.3 µM | HOP-62 18.5 µM | Hs-578T 21.2 µM | UO-31 17.4 µM | COLO 205 20.9 µM | HL-60 23 µM | A549 16.7 µM | A498 15.5 µM | SW-620 20.5 µM | SK-MEL-28 22.1 µM

O=C(NC(Cc1ccccc1)(Cc1ccc(O)cn1)C(=O)O)c1ccccc1 (stereo not drawn)
inactive: PC-3 76.4 µM | EKVX 55.6 µM | NCI-H522 > 100 µM | RXF 393 > 100 µM | OVCAR-4 98.6 µM | HOP-92 33.8 µM | RPMI-8226 49.3 µM | UACC-257 > 100 µM | NCI-H23 > 100 µM | HCC 2998 99.1 µM | M14 > 100 µM | HOP-62 > 100 µM | Hs-578T > 100 µM | UO-31 86.5 µM | COLO 205 84.7 µM | HL-60 16.5 µM | A549 > 100 µM | SW-620 > 100 µM | SK-MEL-28 > 100 µM

Cc1ccc(S(=O)(=O)NC(=O)C2C(=O)CC3(CCCCC3)CC2=O)cc1
inactive: PC-3 25.6 µM | EKVX 25.4 µM | NCI-H522 23.8 µM | RXF 393 38.3 µM | OVCAR-4 32.4 µM | HOP-92 14.8 µM | RPMI-8226 23.1 µM | UACC-257 28.6 µM | NCI-H23 46 µM | M14 34.5 µM | HOP-62 25.4 µM | Hs-578T 41.9 µM | UO-31 22.4 µM | COLO 205 17.9 µM | HL-60 29.5 µM | A549 33.3 µM | A498 28.4 µM | SW-620 27.6 µM
